US9822126B1, “Substituted 1,2,3-triazol-1-yl-methyl-2,3-dihydro-2-methyl-6-nitroimidazo[2,1-b]oxazoles as anti-mycobacterial agents and a process for the preparation thereof” (priority 2014, dated 2017)
Converted amounts (≈) assume the structure as drawn. Like-named read-outs stand apart in the source and are kept apart here.

Experiments:
Assay type in all cases: cell-based
[1] = system: macrophage J774 cells line; test: Cytotoxicity assay (MTT) in macrophage J774 cells; details: macrophage J774, 24 hrs incubation, tested at 40 μg/ml
Method: The study was carried out using macrophage J774 cells line (ATCC-USA). Cells were grown in Rosewell Park Memorial Institute Medium (RPMI) containing 10% fetal calf serum (FCS) and supplemented with 75 mg/liter penicillin, 100 mg/liter streptomycin, 110 mg/liter Sodium pyruvate, 2.38 gm/liter HEPES, 0.05 mM 2 β-mercaptoethanol, and 2 gm/liter NaHCO3, in a humidified atmosphere in 5% CO2 at 37° C., and were sub-cultured at 1:4 ratio once a week.
Cells were plated at a density of 3×10^4 cells/cm^2 and maintained in culture medium for 12 hours. Cells were seeded onto 96-well flat bottom plates and FCS was reduced to 5% for the experiment. Stock solutions of compounds 9 to 37 were prepared fresh to avoid oxidation. Cells were incubated with the compounds (40 μg/ml) for 24 hrs.
After the completion of incubation, the medium was removed and cell viability was evaluated by assaying for the ability of functional mitochondria to catalyze the reduction of 3-(4,5-dimethylthiazol-2-yl)-2,5-diphenyltetrazolium bromide (MTT) to form formazan salt by mitochondrial dehydrogenases, and determined by Elisa reader at 450 nm (Multiskan Spectrum; Thermo Electron Corporation, USA). Percentage cytotoxicity was calculated with respect to the untreated cells.

[2] = system: non-replicating stages of M. tuberculosis; test: MIC against non-replicating M. tuberculosis; details: Mycobacterium tuberculosis, read-out: MIC Non-replicating strain
[3] = system: M. tuberculosis H37Rv (ATCC 27294); test: MIC by broth dilution against M. tuberculosis H37Rv (replicating); details: Mycobacterium tuberculosis
[4] = 504 h, broth dilution, 37° C. for 3-weeks, read visually, replicating stage, read-out: MIC M. tb H37Rv

In the case of `C[C@]1(Cn2cc(-c3ccc(OC(F)(F)F)cc3)nn2)Cn2cc([N+](=O)[O-])nc2O1` [I1, (R)-2-Methyl-6-nitro-2-((4-(4-(trifluoromethoxy)phenyl)-1H-1,2,3-triazol-1-yl)methyl)-2,3-dihydroimidazo[2,1-b]oxazole], the Cytotoxicity [1] is reported as greater than 40 µg/mL, the MIC [2] is reported as 4 µg/mL (≈ 9.75 µM) and the MIC [3, 4] is reported as 2 µg/mL (≈ 4.87 µM).
`C[C@]1(Cn2cc(-c3ccc(C(F)(F)F)cc3)nn2)Cn2cc([N+](=O)[O-])nc2O1` [I2, (R)-2-Methyl-6-nitro-2-((4-(4-(trifluoromethyl)phenyl)-1H-1,2,3-triazol-1-yl)methyl)-2,3-dihydroimidazo[2,1-b]oxazole] gave a Cytotoxicity [1] greater than 40 µg/mL, an MIC [2] of 8 µg/mL (≈ 20.3 µM) and an MIC [3, 4] of 2 µg/mL (≈ 5.07 µM).
Work on `C[C@]1(Cn2cc(-c3ccc(F)cc3)nn2)Cn2cc([N+](=O)[O-])nc2O1` [I3, (R)-2-((4-(4-Fluorophenyl)-1H-1,2,3-triazol-1-yl)methyl)-2-methyl-6nitro-2,3-dihydro imidazo[2,1-b]oxazole] yielded a Cytotoxicity [1] greater than 40 µg/mL, an MIC [2] of 2 µg/mL (≈ 5.81 µM) and an MIC [3, 4] of 1 µg/mL (≈ 2.9 µM).
In the case of `Cc1cc(-c2cn(C[C@@]3(C)Cn4cc([N+](=O)[O-])nc4O3)nn2)ccc1F` [I4, (R)-2-((4-(4-Fluoro-3-methylphenyl)-1H-1,2,3-triazol-1-yl)methyl)-2-methyl-6-nitro-2,3-dihydroimidazo[2,1-b]oxazole], the Cytotoxicity [1] is reported as greater than 40 µg/mL, the MIC [2] is reported as 4 µg/mL (≈ 11.2 µM) and the MIC [3, 4] is reported as 2 µg/mL (≈ 5.58 µM).
With `C[C@]1(Cn2cc(-c3ccc(F)cc3F)nn2)Cn2cc([N+](=O)[O-])nc2O1` [I5, (R)-2-((4-(2,4-Difluorophenyl)-1H-1,2,3-triazol-1-yl)methyl)-2-methyl-6-nitro-2,3-dihydroimidazo[2,1-b]oxazole] the Cytotoxicity [1] was greater than 40 µg/mL, the MIC [2] was 8 µg/mL (≈ 22.1 µM) and the MIC [3, 4] was 1 µg/mL (≈ 2.76 µM).
`C[C@]1(Cn2cc(-c3ccc(Oc4ccccc4)cc3)nn2)Cn2cc([N+](=O)[O-])nc2O1` [I6, (R)-2-Methyl-6-nitro-2-((4-(4-phenoxyphenyl)-1H-1,2,3-triazol-1-yl)methyl)-2,3-dihydroimidazo[2,1-b]oxazole] gave a Cytotoxicity [1] greater than 40 µg/mL, an MIC [2] of 2 µg/mL (≈ 4.78 µM) and an MIC [3, 4] of 2 µg/mL (≈ 4.78 µM).
For `CCCCCc1cn(C[C@@]2(C)Cn3cc([N+](=O)[O-])nc3O2)nn1` [I7, (R)-2-[(4-Pentyl-1H-1,2,3-triazol-1-yl)methyl]-2,3-dihydro-2-methyl-6-nitroimidazo[2,1-b]oxazole], the Cytotoxicity [1] was greater than 40 µg/mL, the MIC [2] was 4 µg/mL (≈ 12.5 µM) and the MIC [3, 4] was 2 µg/mL (≈ 6.24 µM).
Work on `C[C@]1(Cn2cc(COc3ccc(OC(F)(F)F)cc3)nn2)Cn2cc([N+](=O)[O-])nc2O1` [I8, (R)-2-Methyl-6-nitro-2-((4-((4-(trifluoromethoxy)phenoxy)methyl)-1H-1,2,3-triazol-1-yl)methyl)-2,3-dihydroimidazo[2,1-b]oxazole] yielded a Cytotoxicity [1] greater than 40 µg/mL, an MIC [2] of 4 µg/mL (≈ 9.08 µM) and an MIC [3, 4] of 2 µg/mL (≈ 4.54 µM).
Molecule `C[C@]1(Cn2cc(COc3ccc(C(F)(F)F)cc3)nn2)Cn2cc([N+](=O)[O-])nc2O1` [I9, (R)-2-Methyl-6-nitro-2-((4-((4-(trifluoromethyl)phenoxy)methyl)-1H-1,2,3-triazol-1-yl)methyl)-2,3-dihydroimidazo[2,1-b]oxazole] has a Cytotoxicity [1] greater than 40 µg/mL, an MIC [2] of 2 µg/mL (≈ 4.71 µM) and an MIC [3, 4] of 1 µg/mL (≈ 2.36 µM).
For `C[C@]1(Cn2cc(COc3cccc(Cl)c3)nn2)Cn2cc([N+](=O)[O-])nc2O1` [I10, (R)-2-((4-((3-Chlorophenoxy)methyl)-1H-1,2,3-triazol-1-yl)methyl)-2-methyl-6-nitro-2,3-dihydroimidazo[2,1-b]oxazole], the Cytotoxicity [1] was greater than 40 µg/mL, the MIC [2] was 1 µg/mL (≈ 2.56 µM) and the MIC [3, 4] was 0.5 µg/mL (≈ 1.28 µM). For the same molecule, the MIC ([3]; read-out: MIC value) was less than 1 µg/mL.
`C[C@]1(Cn2cc(COc3ccc(Br)cc3)nn2)Cn2cc([N+](=O)[O-])nc2O1` [I11, (R)-2-((4-((4-Bromophenoxy)methyl)-1H-1,2,3-triazol-1-yl)methyl)-2-methyl-6-nitro-2,3-dihydroimidazo[2,1-b]oxazole] was tested, and the Cytotoxicity [1] was greater than 40 µg/mL, the MIC [2] was 0.25 µg/mL (≈ 0.574 µM) and the MIC [3, 4] was 0.12 µg/mL (≈ 0.276 µM). For the same molecule, the MIC ([3]; read-out: MIC value) was less than 1 µg/mL.
For `Cc1ccc(OCc2cn(C[C@@]3(C)Cn4cc([N+](=O)[O-])nc4O3)nn2)cc1` [I12, (R)-2-Methyl-6-nitro-2-((4-((p-tolyloxy)methyl)-1H-1,2,3-triazol-1-yl)methyl)-2,3-dihydroimidazo[2,1-b]oxazole], the Cytotoxicity [1] was greater than 40 µg/mL, the MIC [2] was 2 µg/mL (≈ 5.4 µM) and the MIC [3, 4] was 1 µg/mL (≈ 2.7 µM).
`Cc1cccc(OCc2cn(C[C@@]3(C)Cn4cc([N+](=O)[O-])nc4O3)nn2)c1` [I13, (R)-2-Methyl-6-nitro-2-((4-((m-tolyloxy)methyl)-1H-1,2,3-triazol-1-yl)methyl)-2,3-dihydroimidazo[2,1-b]oxazole] was tested, and the Cytotoxicity [1] was greater than 40 µg/mL, the MIC [2] was 0.5 µg/mL (≈ 1.35 µM) and the MIC [3, 4] was 0.5 µg/mL (≈ 1.35 µM). The MIC ([3]; read-out: MIC value) was less than 1 µg/mL.
Molecule `Cc1ccccc1OCc1cn(C[C@@]2(C)Cn3cc([N+](=O)[O-])nc3O2)nn1` [I14, (R)-2-Methyl-6-nitro-2-((4-((o-tolyloxy)methyl)-1H-1,2,3-triazol-1-yl)methyl)-2,3-dihydroimidazo[2,1-b]oxazole] has a Cytotoxicity [1] greater than 40 µg/mL, an MIC [2] of 2 µg/mL (≈ 5.4 µM) and an MIC [3, 4] of 0.5 µg/mL (≈ 1.35 µM). The MIC ([3]; read-out: MIC value) was less than 1 µg/mL.
`CCc1ccc(OCc2cn(C[C@@]3(C)Cn4cc([N+](=O)[O-])nc4O3)nn2)cc1` [I15, (R)-2-((4-((4-Ethylphenoxy)methyl)-1H-1,2,3-triazol-1-yl)methyl)-2-methyl-6-nitro-2,3-dihydroimidazo[2,1-b]oxazole] gave a Cytotoxicity [1] greater than 40 µg/mL, an MIC [2] of 2 µg/mL (≈ 5.2 µM) and an MIC [3, 4] of 2 µg/mL (≈ 5.2 µM).
In the case of `C[C@]1(Cn2cc(COc3cccc(F)c3)nn2)Cn2cc([N+](=O)[O-])nc2O1` [I16, (R)-2-((4-((3-Fluorophenoxy)methyl)-1H-1,2,3-triazol-1-yl)methyl)-2-methyl-6-nitro-2,3-dihydroimidazo[2,1-b]oxazole], the Cytotoxicity [1] is reported as greater than 40 µg/mL, the MIC [2] is reported as 2 µg/mL (≈ 5.34 µM) and the MIC [3, 4] is reported as 1 µg/mL (≈ 2.67 µM).
For `C[C@]1(Cn2cc(COc3ccccc3F)nn2)Cn2cc([N+](=O)[O-])nc2O1` [I17, (R)-2-((4-((2-Fluorophenoxy)methyl)-1H-1,2,3-triazol-1-yl)methyl)-2-methyl-6-nitro-2,3-dihydroimidazo[2,1-b]oxazole], the Cytotoxicity [1] was greater than 40 µg/mL, the MIC [2] was 0.5 µg/mL (≈ 1.34 µM) and the MIC [3, 4] was 0.25 µg/mL (≈ 0.668 µM). The MIC ([3]; read-out: MIC value) was less than 1 µg/mL.
`CC(C)c1ccc(OCc2cn(C[C@@]3(C)Cn4cc([N+](=O)[O-])nc4O3)nn2)cc1` [I18, (R)-2-((4-((4-Isopropylphenoxy)methyl)-1H-1,2,3-triazol-1-yl)methyl)-2-methyl-6-nitro-2,3-dihydroimidazo[2,1-b]oxazole] was tested, and the Cytotoxicity [1] was greater than 40 µg/mL, the MIC [2] was 1 µg/mL (≈ 2.51 µM) and the MIC [3, 4] was 0.5 µg/mL (≈ 1.25 µM). It also gave an MIC ([3]; read-out: MIC value) of less than 1 µg/mL.
In the case of `C[C@]1(Cn2cc(COc3ccccn3)nn2)Cn2cc([N+](=O)[O-])nc2O1` [I19, (R)-2-Methyl-6-nitro-2-((4-((pyridin-2-yloxy)methyl)-1H-1,2,3-triazol-1-yl)methyl)-2,3-dihydroimidazo[2,1-b]oxazole], the Cytotoxicity [1] is reported as greater than 40 µg/mL, the MIC [2] is reported as 2 µg/mL (≈ 5.6 µM) and the MIC [3, 4] is reported as 1 µg/mL (≈ 2.8 µM).
For `Cc1ccc(SCc2cn(C[C@@]3(C)Cn4cc([N+](=O)[O-])nc4O3)nn2)cc1` [I20, (R)-2-Methyl-6-nitro-2-((4-((p-tolylthio)methyl)-1H-1,2,3-triazol-1-yl)methyl)-2,3-dihydroimidazo[2,1-b]oxazole], the Cytotoxicity [1] was greater than 40 µg/mL, the MIC [2] was 1 µg/mL (≈ 2.59 µM) and the MIC [3, 4] was 2 µg/mL (≈ 5.18 µM).
`Cc1ccc(OCCc2cn(C[C@@]3(C)Cn4cc([N+](=O)[O-])nc4O3)nn2)cc1` [I21, (R)-2-Methyl-6-nitro-2-((4-(2-(p-tolyloxy)ethyl)-1H-1,2,3-triazol-1-yl)methyl)-2,3-dihydroimidazo[2,1-b]oxazole] was tested, and the Cytotoxicity [1] was greater than 40 µg/mL, the MIC [2] was 0.25 µg/mL (≈ 0.65 µM) and the MIC [3, 4] was 0.25 µg/mL (≈ 0.65 µM). It also gave an MIC ([3]; read-out: MIC value) of less than 1 µg/mL.
`C[C@]1(Cn2cc(CN3CCOCC3)nn2)Cn2cc([N+](=O)[O-])nc2O1` [I22, (R)-2-Methyl-2-((4-(morpholinomethyl)-1H-1,2,3-triazol-1-yl)methyl)-6-nitro-2,3-dihydroimidazo[2,1-b]oxazole] gave a Cytotoxicity [1] greater than 40 µg/mL, an MIC [2] of 1 µg/mL (≈ 2.86 µM) and an MIC [3, 4] of 2 µg/mL (≈ 5.72 µM).
